From the supplement of paper PMC12317010 come the findings set out here.

This series in a line: collision cross section in nitrogen (drift tube, single-field); higher = larger gas-phase ion size.
Where [1] appears, read: ion type: [M+H], ion source: APCI, ion mode: Positive.
The mark [2] stands for this setting: ion type: [M+H], ion source: ESI, ion mode: Positive.
The mark [3] stands for this setting: ion type: [M-H], ion source: ESI, ion mode: Negative.
The mark [4] stands for this setting: ion type: [M+Na], ion source: ESI, ion mode: Positive.
[5] abbreviates: ion type: [M+], ion source: APCI, ion mode: Positive.

The structures appear in SMILES notation. Counter-ions that a name gives are not always drawn.
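Further: chemical standards at 10 µM analysed by drift tube IMS-QTOF MS in about 3.95 torr nitrogen, mean of duplicate injections differing ≤1%, mass error below 10 ppm.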

In the case of `COC(=O)Nc1nc2ccccc2[nH]1` [Carbendazim], the “collision cross section in nitrogen” value by setting is: under setting [1], 138.7 Å²; under setting [2], 139 Å².
Take `CCCN(CC1CC1)c1c([N+](=O)[O-])cc(C(F)(F)F)cc1[N+](=O)[O-]` [Profluralin]: the “collision cross section in nitrogen” value under setting [3] is on record as 172.2 Å².
On to `OC(Cn1cncn1)(Cn1cncn1)c1ccc(F)cc1F` [Fluconazole], for which the “collision cross section in nitrogen” value turned out to be 167.5 Å² under setting [1], 167.2 Å² under setting [2] and 172 Å² under setting [4].
Consider `CCn1nc(Cc2ccccc2)cc1C1CCN(C[C@H]2C[C@H](N(C)[C@@H](C(=O)O)C(C)C)C[C@@H]2c2cccc(F)c2)CC1` [MK-578], for which the “collision cross section in nitrogen” value by setting is: under setting [1], 243.1 Å²; under setting [2], 243.4 Å²; under setting [4], 241.9 Å²; under setting [3], 247.7 Å².
Consider `NC(=O)N(O)[C@@H]1C=C[C@H](Oc2cccc(Oc3ccc(F)cc3)c2)C1`, for which, under setting [4], the “collision cross section in nitrogen” value is 191.1 Å².
As for `O=C(O)COc1ccc(Cl)cc1` [4-Chlorophenoxyacetic acid], the “collision cross section in nitrogen” value under setting [3] is recorded as 140.9 Å².
For `C=CC(=O)OCC(CC)(COC(=O)C=C)COC(=O)C=C` [Trimethylolpropane triacrylate], the “collision cross section in nitrogen” value under setting [4] was found to be 165.9 Å².
For `O=[N+]([O-])c1cc([As](=O)(O)O)ccc1O` [4-Hydroxy-3-nitrophenylarsonic acid], the “collision cross section in nitrogen” value under setting [2] came out at 145 Å² and the “collision cross section in nitrogen” value under setting [3] came to 141.8 Å².
As to `CNC(=O)Oc1cccc2c1OC(C)(C)C2` [Carbofuran], the “collision cross section in nitrogen” value under setting [4] amounted to 157.8 Å².
For the molecule `COCCc1ccc(OCC(O)CNC(C)C)cc1` (stereo not drawn) [Metoprolol], the “collision cross section in nitrogen” value runs as follows: under setting [1], 171.7 Å²; under setting [2], 172.1 Å²; under setting [4], 164 Å².
`C#C[C@]1(O)CC[C@H]2[C@@H]3CCC4=CC(=O)CC[C@]4(C)[C@H]3CC[C@@]21C` [Ethisterone]: the “collision cross section in nitrogen” value was 180.2 Å² under setting [1] and 204.6 Å² under setting [4].
For `Nc1cccc2ccccc12` [1-Naphthylamine], the “collision cross section in nitrogen” value was determined as 127.6 Å² under setting [2] and 125 Å² under setting [5].
As to `NC(N)=Nc1nc(CSCCC(N)=NS(N)(=O)=O)cs1` [Famotidine], the “collision cross section in nitrogen” value is, setting by setting: under setting [1], 168.7 Å²; under setting [2], 168.9 Å²; under setting [4], 174.3 Å²; under setting [3], 169.4 Å².
As to `CCCCCCCCCCCCCCCC(=O)OCC` [Ethyl hexadecanoate], the “collision cross section in nitrogen” value under setting [3] worked out at 177.9 Å².
For the molecule `Cc1ncc(CO)c(CO)c1O` [Pyridoxine], the “collision cross section in nitrogen” value runs as follows: under setting [1], 133.7 Å²; under setting [2], 134.6 Å²; under setting [3], 133.2 Å².
Regarding `CC1(C)CCC(C)(C)c2cc(C(=O)Nc3ccc(C(=O)O)cc3)ccc21`, the “collision cross section in nitrogen” value by setting is: under setting [2], 198.2 Å²; under setting [3], 198 Å².
`C=CCOCC(CC)(CO)CO` [2-Allyloxymethyl-2-ethylpropanediol]: the “collision cross section in nitrogen” value under setting [4] worked out at 141.3 Å².
`CCCCOC(=O)[C@@H](C)Oc1ccc(Oc2ccc(C#N)cc2F)cc1` [Cyhalofop-butyl]: under setting [4], the “collision cross section in nitrogen” value amounted to 191.2 Å².
With `OC[C@H]1O[C@H](O[C@]2(CCl)O[C@H](CCl)[C@@H](O)[C@@H]2O)[C@H](O)[C@@H](O)[C@H]1Cl` [Sucralose], the “collision cross section in nitrogen” value under setting [4] turned out to be 179.7 Å² and the “collision cross section in nitrogen” value under setting [3] is 174.5 Å².
As for `O=C1OC2(c3ccc(O)cc3Oc3cc(O)ccc32)c2ccccc21` [Fluorescein sodium], the “collision cross section in nitrogen” value is listed as 174.3 Å² under setting [1], 173.8 Å² under setting [2], 189.1 Å² under setting [4] and 176.1 Å² under setting [3].
With `CCCCOC(=O)CCCCC(=O)OCCCC` [Dibutyl adipate], the “collision cross section in nitrogen” value under setting [4] was found to be 180.8 Å².
As for `CC(C)(C)c1cc(/C=C2\SC(=N)NC2=O)cc(C(C)(C)C)c1O` [Darbufelone mesylate], the “collision cross section in nitrogen” value is on record as 188.3 Å² under setting [1], 188 Å² under setting [2], 207.3 Å² under setting [4] and 186.1 Å² under setting [3].
As for `CC(C)(O)c1ccc(CNC(=O)c2cccnc2Oc2ccc3nonc3c2)cc1`, the “collision cross section in nitrogen” value runs as follows: under setting [1], 196.9 Å²; under setting [4], 191.5 Å²; under setting [3], 201 Å².
On to `Cc1cccc(C)c1NC(=O)CN1CCCC1=O` [Nefiracetam], for which, under setting [4], the “collision cross section in nitrogen” value came to 167.3 Å².
For the molecule `NCCCOCCOCCOCCCN` [3,3'-[Oxybis(ethane-2,1-diyloxy)]dipropan-1-amine], the “collision cross section in nitrogen” value was found to be 147.9 Å² under setting [1], 148.3 Å² under setting [2] and 150.3 Å² under setting [4].
As for `Oc1ccccc1Br` [2-Bromophenol], the “collision cross section in nitrogen” value under setting [3] turned out to be 120.2 Å².
As for `CN(C)CCOC(C)(c1ccccc1)c1ccccn1` (stereo not drawn) [Doxylamine succinate], the “collision cross section in nitrogen” value under setting [1] is 162 Å².
Regarding `C=C(C)C(=O)NCCCN(C)C` [N-(3-Dimethylaminopropyl)methacrylamide], the “collision cross section in nitrogen” value came to 135.8 Å² under setting [1] and 137.1 Å² under setting [2].
In the case of `CC(C)(C)CC(C)(C)c1ccc(O)cc1` [4-(1,1,3,3-Tetramethylbutyl)phenol], under setting [3], the “collision cross section in nitrogen” value was found to be 157.1 Å².
For `CCOC(=O)C1=NN(c2ccc(Cl)cc2Cl)C(C)(C(=O)OCC)C1` (stereo not drawn) [Mefenpyr-diethyl], the “collision cross section in nitrogen” value under setting [4] amounted to 194.8 Å².
Consider `CCOc1cc(Oc2ccc(C(F)(F)F)cc2Cl)ccc1[N+](=O)[O-]` [Oxyfluorfen], for which the “collision cross section in nitrogen” value under setting [3] was 172.1 Å².
Regarding `CCNc1nc(NC(C)(C)C)nc(SC)n1` [Terbutryn], the “collision cross section in nitrogen” value is on record as 159.9 Å² under setting [1] and 159.4 Å² under setting [2].
In the case of `O=C(O[C@@H]1Cc2c(O)cc(O)cc2O[C@@H]1c1cc(O)c(O)c(O)c1)c1cc(O)c(O)c(O)c1` [(-)-Epigallocatechin gallate], the “collision cross section in nitrogen” value under setting [4] is recorded as 212.4 Å².
`N#Cc1ccc(C2CCCc3cncn32)cc1` (stereo not drawn): the “collision cross section in nitrogen” value turned out to be 157 Å² under setting [1] and 157.2 Å² under setting [2].
With `CC1(C)[C@H](/C=C(\Cl)C(F)(F)F)[C@@H]1C(=O)O[C@@H](C#N)c1cccc(Oc2ccccc2)c1` [lambda-Cyhalothrin], the “collision cross section in nitrogen” value under setting [4] is on record as 190.4 Å².
As for `CC(C)C1CCC(Cc2ccc(Cl)cc2)C1(O)Cn1cncn1` (stereo not drawn) [Ipconazole], the “collision cross section in nitrogen” value stood at 173.8 Å² under setting [1], 173.8 Å² under setting [2] and 179.6 Å² under setting [4].
Turning to `CN(C)CCCNCCC#N` [3-{[3-(Dimethylamino)propyl]amino}propanenitrile], the “collision cross section in nitrogen” value is 130.8 Å² under setting [1] and 131.9 Å² under setting [2].
`CCOP(=O)(NC(C)C)Oc1ccc(SC)c(C)c1` (stereo not drawn) [Fenamiphos]: the “collision cross section in nitrogen” value is, setting by setting: under setting [1], 172.5 Å²; under setting [2], 171.3 Å²; under setting [4], 178.1 Å²; under setting [3], 172.2 Å².
For the molecule `COC(=O)CCCCCCCC(=O)OC` [Dimethyl nonanedioate], the “collision cross section in nitrogen” value under setting [4] is recorded as 155.6 Å².
In the case of `CC(C)[N+](C)(CCOC(=O)C1c2ccccc2Oc2ccccc21)C(C)C` [Propantheline bromide], the “collision cross section in nitrogen” value (ion source: ESI, ion mode: Positive, ion type: [M]+ (permanent cation)) is on record as 184.1 Å².
`Cc1cc(-c2cc(C)c(N)c(C)c2)cc(C)c1N` [3,3',5,5'-Tetramethylbenzidine]: the “collision cross section in nitrogen” value reads like this: under setting [1], 175.7 Å²; under setting [2], 176 Å²; under setting [5], 162.4 Å².
Consider `COc1nn(C(=O)NS(=O)(=O)c2ccccc2OC(F)(F)F)c(=O)n1C` [Flucarbazone-sodium], for which, under setting [3], the “collision cross section in nitrogen” value is reported as 182.9 Å².
As to `CCCCNC(=O)NS(=O)(=O)c1ccc(C)cc1` [Tolbutamide], the “collision cross section in nitrogen” value is recorded as 176.6 Å² under setting [4] and 165 Å² under setting [3].
For the molecule `O=S(=O)(c1ccc2c(c1)CCCN2)N1CCC[C@@H]2CCCC[C@H]21`, the “collision cross section in nitrogen” value by setting is: under setting [1], 179.5 Å²; under setting [2], 178.5 Å²; under setting [4], 195.9 Å²; under setting [3], 179.6 Å².
The corresponding values for `CC(=O)OCC(=O)[C@@]12N=C(C)O[C@@H]1C[C@H]1[C@@H]3CCC4=CC(=O)C=C[C@]4(C)[C@H]3[C@@H](O)C[C@@]12C` [Deflazacort] are 205.2 Å², 204.8 Å², 213.4 Å² and 206.7 Å².
Consider `O=C1Cc2ccccc2N1c1c(Cl)cccc1Cl` [1-(2,6-Dichlorophenyl)-2-indolinone], for which the “collision cross section in nitrogen” value under setting [1] stood at 153.5 Å².
Regarding `Cn1sccc1=O` [2-Methyl-3(2H)-isothiazolone], the “collision cross section in nitrogen” value is, setting by setting: under setting [1], 117.1 Å²; under setting [2], 117.9 Å².
On to `CNC(=C[N+](=O)[O-])NCCSCc1ccc(CN(C)C)o1` [Ranitidine], for which the “collision cross section in nitrogen” value by setting is: under setting [1], 169.2 Å²; under setting [2], 169 Å²; under setting [4], 176.2 Å²; under setting [3], 179.5 Å².
As for `CC1(c2ccc(Oc3ccccc3)cc2)OC(=O)N(Nc2ccccc2)C1=O` (stereo not drawn) [Famoxadone], the “collision cross section in nitrogen” value amounted to 210.6 Å² under setting [4] and 195.7 Å² under setting [3].
As to `CCC(C)(C)C(=O)OC1=C(c2ccc(Cl)cc2Cl)C(=O)OC12CCCCC2` [Spirodiclofen], under setting [4], the “collision cross section in nitrogen” value is recorded as 209.5 Å².
On to `CC(C)OC(=O)C(C)(C)Oc1ccc(C(=O)c2ccc(Cl)cc2)cc1` [Fenofibrate], for which the “collision cross section in nitrogen” value runs as follows: under setting [2], 192.8 Å²; under setting [4], 198.4 Å².
Consider `O=C1CC(c2ccc(O)cc2)Oc2cc(O)cc(O)c21` (racemic) [(+/-)-Naringenin], for which the “collision cross section in nitrogen” value under setting [3] came out at 163.9 Å².
For the molecule `CC(C)=CC1C(C(=O)OCc2coc(Cc3ccccc3)c2)C1(C)C` (stereo not drawn) [Resmethrin], the “collision cross section in nitrogen” value under setting [4] was found to be 177.8 Å².
With `COc1cc(NC(=O)CC(C)=O)c(OC)cc1Cl` [4'-Chloro-2',5'-dimethoxyacetoacetanilide], the “collision cross section in nitrogen” value by setting is: under setting [2], 160.8 Å²; under setting [4], 168.5 Å²; under setting [5], 156.7 Å²; under setting [3], 161.1 Å².
With `CN(C)CCN(Cc1cccs1)c1ccccn1` [Methapyrilene fumarate], the “collision cross section in nitrogen” value is, setting by setting: under setting [2], 157.8 Å²; under setting [4], 160.3 Å².
For the molecule `CCN(CC)c1ccc(N=Nc2ccccc2)cc1` [C.I. Solvent Yellow 56], the “collision cross section in nitrogen” value under setting [1] was found to be 165.9 Å² and the “collision cross section in nitrogen” value under setting [2] is on record as 165.9 Å².
